From US20140080810A1 (Exelixis, Inc., priority 2010, published 2014)
Like-named read-outs stand apart in the source and are kept apart here.

Columns and labels:
mTOR/GbL/Raptor (mTORC1) = mTOR/GbL/Raptor (mTORC1) (Homo sapiens, UniProt P42345); assay: mTOR/GbL/Raptor (mTORC1) ELISA Assay; format: biochemical; conditions: 4EBP1 used as substrate for mTOR/GbL/raptor kinase; read-out: PI3K biochemical IC50 values mTOR
Experimental: The measurement of mTORC1 enzyme activity was performed in an ELISA assay format following the phosphorylation of 4E-BP1 protein. All experiments were performed in the 384-well format. Generally, 0.5 μL DMSO containing varying concentrations of the test Compound was mixed with 15 μL enzyme solution. Kinase reactions were initiated with the addition of 15 μL of substrates-containing solution. The assay conditions were as follows; 0.2 nM mTORC1, 10 μM ATP and 50 nM NHis-tagged 4E-BPI in 20 mM Hepes, pH 7.2, 1 mM DTT, 50 mM NaCl, 10 mM MnCl2, 0.02 mg/mL BSA, 0.01% CHAPS, 50 mM β-glycerophosphate. Following an incubation of 120 minutes at ambient temperature, 20 μL of the reaction volume was transferred to a Ni-Chelate-coated 384-well plate. The binding step of the 4E-BP1 protein proceeded for 60 minutes, followed by washing 4 times each with 50 μL of Tris-buffered saline solution (TBS). Anti-phospho-4E-BP1 rabbit-IgG (20 μL, 1:5000) in 5% BSA-TBST (0.2% Tween-20 in TBS) was added and further incubated for 60 minutes. Incubation with a secondary HRP-tagged anti-IgG was similarly performed after washing off the primary antibody (4 washes of 50 μL). Following the final wash step with TBST, 20 μL of SuperSignal ELISA Femto (Pierce Biotechnology) was added and the luminescence measured using an EnVision plate reader.

[1] = test system: pAKT (T308) in SK-BR-3 cells (PI3Kα wt); assay: pAKT (T308) ELISA Assay; format: cell-based; conditions: Homo sapiens, heregulin stimulation, read-out: Cellular pAKT (T308) IC50 PI3Kαwt SK-BR-3 hereg
Experimental: (§1) In another embodiment, the pAKT ELISA Assay was performed by seeding cells onto 96-well plates (Corning, 3904) in their respective growth media at the densities listed in Table 5. Cells were incubated at 37° C., 5% CO2 for 48 h (except MDA-MB-453 cells which were cultured in the absence of CO2). Compounds were serially diluted in DMSO and subsequently diluted in serum-free DMEM. Test compounds were added to cells in serum-free DMEM at a final concentration of 0.3% DMSO and incubated for 3 h. Cells were lysed with 130 μL of ice-cold RIPA lysis buffer (50 mM Tris-HCl, pH 7.5; 0.5% sodium deoxycholic acid; 1% Triton X-100; 0.1% SDS; 150 mM NaCl) with protease and phosphatase inhibitors (1 mM EDTA, 1 mM NaF, 20 mM β-glycerophosphate, 1 mM Na-orthovanadate, Complete-Mini EDTA-free, Roche, 11836170001, and Phosphatase Inhibitor Cocktail I, Sigma, P2850), directly in 96-well plates. Cells were lysed on ice for 60-120 min at 4° C. The supernatants were added directly to capture ELISA plates previously pre-coated with rabbit anti-AKT capture antibody. ELISA assays for pAKT(T308) and total AKT were performed with the pAKT(T308) ELISA kit (Cell Signaling Technology, 7144) and AKT1 ELISA kit (Cell Signaling Technology, 7142). For the pAKT(T308) ELISA, 85 μL of cell lysate was added to each well. For the total AKT1 ELISA, 15 μL of cell lysate and 85 μL of Starting Block buffer (Pierce, 37543) were added to each well. The plates were incubated overnight at 4° C. with gentle shaking, then washed 3 times with 200 μL of TBST (20 mM Tris, pH 7.4; 150 mM NaCl; 0.1% Tween 20) for 30 s each, and incubated for 1 h with 100 μL of detection antibody (mouse anti-pAKT(T308) antibody or mouse anti-AKT1 antibody). After 3 washes with TBST, the plates were incubated with a 1:1000 dilution of a horseradish peroxidase-labeled anti-mouse IgG (Cell Signaling Technology, 7076) in 100 μL of Starting Block buffer for 0.5 h. After 3 washes with TBST, 50 μL of SuperSignal ELISA Femto substrate solution (Thermo Scientific, 37075A) and 50 μL of SuperSignal ELISA enhancer solution mixture (Thermo Scientific, 37075B) were added to each well and the plates were incubated for approximately 2 min and protected from light. The wells were measured for luminescence using a Wallac plate reader at wavelength of 560 nm. After normalization of pAKT signal to total AKT1 signal, IC50 values were determined relative to the DMSO-treated control.

[2] = test system: pAKT (T308) in MDA-MB-453 cells (PI3Kα H1047R); assay: pAKT (T308) ELISA Assay; format: cell-based; conditions: Homo sapiens, heregulin stimulation, read-out: Cellular pAKT (T308) IC50 PI3KαH1047R MDA-MB-453 hereg
Experimental: as §1

[3] = test system: pAKT (T308) in T-47D cells (PI3Kα H1047R); assay: pAKT (T308) ELISA Assay; format: cell-based; conditions: Homo sapiens, T47D, IGF1 stimulation
Experimental: as §1

[4] = test system: pAKT (T308) in HCT 116 cells (PI3Kα H1047R); assay: pAKT (T308) ELISA Assay; format: cell-based; conditions: Homo sapiens, IGF1 stimulation, read-out: Cellular pAKT (T308) IC50 PI3KαH1047R HCT 116 IGF1
Experimental: as §1

[5] = test system: pAKT (T308) in SK-OV-3 cells (PI3Kα H1047R); assay: pAKT (T308) ELISA Assay; format: cell-based; conditions: Homo sapiens, IGF1 stimulation, read-out: Cellular pAKT (T308) IC50 PI3KαH1047R SK-OV-3 IGF1
Experimental: as §1

[6] = read-out: Cellular pAKT (T308) IC50 PI3KαH1047R T-47D IGF1
[7] = read-out: pAKT (T308) IC50 T-47D PI3Kα H1047R IGF1

## Cc1nc2ncc(-c3ccc4c(c3)CN(c3nc(CN(C)C)nc5c3CC(C)(C)CC5)CCO4)cc2[nH]1 [Compound 693]
mTOR/GbL/Raptor (mTORC1)
  IC50: 0.006 µM
[1]
  IC50: 0.339 µM
[2]
  IC50: 0.04 µM
[3]; [6]
  IC50: 0.073 µM
[3]; [7]
  IC50: 0.073 µM
[4]
  IC50: 0.168 µM

## Cc1nc2cc(-c3ccc4c(c3)CN(c3nc(CN(C)C)nc(C)c3C(C)C)CCO4)cnc2[nH]1 [Compound 694]
mTOR/GbL/Raptor (mTORC1)
  IC50: 0.016 µM
[1]
  IC50: 0.115 µM
[2]
  IC50: 0.018 µM
[3]; [6]
  IC50: 0.102 µM
[3]; [7]
  IC50: 0.102 µM
[4]
  IC50: 0.13 µM

## COc1ccc2c(N3CCOc4ccc(-c5cnc6nc(C)[nH]c6c5)cc4C3)nc(CN(C)C)nc2c1 [Compound 696]
mTOR/GbL/Raptor (mTORC1)
  IC50: 0.381 µM
[5]
  IC50: 0.956 µM
[1]
  IC50: 1.24 µM
[2]
  IC50: 0.117 µM
[3]; [6]
  IC50: 0.213 µM
[3]; [7]
  IC50: 0.213 µM
[4]
  IC50: 0.4 µM

## CCNc1nc2ccc(-c3ccc4c(c3)CN(c3ccnc5cc(F)ccc35)CCO4)cc2[nH]1 [Compound 698]
mTOR/GbL/Raptor (mTORC1)
  IC50: 0.12 µM
[5]
  IC50: 0.438 µM
[1]
  IC50: 2.87 µM
[2]
  IC50: 0.118 µM
[3]; [6]
  IC50: 0.258 µM
[3]; [7]
  IC50: 0.258 µM
[4]
  IC50: 0.462 µM

## CCNc1nc2ccc(-c3ccc4c(c3)CN(c3ncnc(NCC)c3C)CCO4)cc2[nH]1 [Compound 699]
mTOR/GbL/Raptor (mTORC1)
  IC50: 0.252 µM
[5]
  IC50: 1.24 µM
[1]
  IC50: 4.54 µM
[2]
  IC50: 0.639 µM
[3]; [6]
  IC50: 0.207 µM
[3]; [7]
  IC50: 0.207 µM
[4]
  IC50: 0.719 µM
